Converted amounts (≈) assume the structure as drawn.
system: Entamoeba histolytica; assay: Antiamoebic activity against Entamoeba histolytica; type: functional, organism-based; settings: not given

Row | SMILES | IC50 [µg/mL]
1 | COc1cc2c3cc1Oc1c(OC)c(OC)cc4c1[C@H](Cc1ccc(cc1)Oc1cc(ccc1O)C[C@H]3N(C)CC2)N(C)CC4 (stereo in doubt; 13) [AROMOLINE] | 2.99 (≈ 4.91 µM)

same assay, conditions: Entamoeba histolytica; read-out: IC50

Row | SMILES | IC50 [µg/mL]
2 | C=C[C@H]1CN2CC[C@H]1C[C@H]2c1[nH]c2ccccc2c1CCOC [10-METHOXY CINCHONAMINE] | 4.5 (≈ 14.5 µM)
3 | COc1cc(O)c2c(c1)C(=O)c1cc(C)cc(O)c1C2=O [PHYSCION] | 12.7 (≈ 44.7 µM)
4 | CC[C@@H]1CN2CC[C@@]34c5ccccc5N5[C@@H]([C@@H]6[C@H]7C[C@@H]8N(CC[C@@]89c8cccc(O)c8N(C(C)=O)[C@@H]69)C[C@H]7CC)OC[C@H]([C@H]1C[C@H]23)[C@H]54 [12'-HYDROXYISOSTRYCHNOBILINE] | 21.4 (≈ 33.7 µM)
5 | O=C1C[C@@H](c2ccc(O)cc2)Oc2cc(O)cc(O)c21 [NARINGENIN] | 92.2 (≈ 339 µM)
6 | CC(=O)CCCCCCCCCC[C@H]1CC[C@@H](O)[C@@H](C)N1 [CASSINE] | 12 (≈ 40.2 µM)
7 | CC1=CC(=O)[C@@H](O)[C@]2(C)[C@H]3[C@]4(O)OC[C@]35[C@H]([C@@H](C)[C@H]4O)[C@@H](O)C(=O)O[C@@H]5C[C@@H]12 [GLAUCARUBOLONE] | 0.12 (≈ 0.304 µM)
8 | CC[C@](C)(OC(C)=O)C(=O)O[C@H]1C(=O)O[C@@H]2C[C@H]3C(C)=CC(=O)[C@@H](O)[C@]3(C)[C@H]3[C@@]4(O)OC[C@]32[C@@H]1[C@@H](C)[C@H]4O [2'-ACETOXY-GLAUCARUBINONE] | 0.155 (≈ 0.289 µM)
9 | COc1ccc2cc1Oc1ccc(cc1)C[C@H]1c3c(cc(OC)c(O)c3Oc3cc4c(cc3OC)CCN(C)[C@@H]4C2)CCN1C [HOMOAROMOLINE] | 10.5 (≈ 17.3 µM)
10 | CI.COc1cc2c3c4c1Oc1cc5c(cc1O4)[C@H](Cc1ccc(O)c(c1)Oc1ccc(cc1)C[C@@H]3N(C)CC2)N(C)CC5 [COCSULINE METHIODIDE] | 28.9
11 | CC(C)=CCC/C(C)=C/CC/C(C)=C/CC/C=C(\C)CC/C=C(\C)CCC=C(C)C | 270 (≈ 658 µM)
12 | COc1ccc2c3c(c4cc(OC)c(OC)cc4c2c1)C[C@H]1CCCCN1C3 [CRYPTOPLEURINE] | 0.031 (≈ 0.0821 µM)
13 | CC(=O)O[C@H]1C(=O)O[C@@H]2C[C@H]3C(C)=CC(=O)[C@@H](O)[C@]3(C)[C@H]3[C@]4(O)OC[C@]32[C@@H]1[C@@H](C)[C@H]4O [HOLACANTHONE] | 0.162 (≈ 0.371 µM)
14 | CN1[C@@H]2CC[C@H]1C[C@@H](OC(=O)C(CO)c1ccccc1)C2 (stereo partly drawn) [ATROPINE] | > 100
15 | COc1cc2c3cc1Oc1c(OC)c(OC)cc4c1[C@@H](Cc1ccc(O)c(c1)Oc1ccc(cc1)C[C@@H]3N(C)CC2)N(C)CC4 [BERBAMINE] | 22.4 (≈ 36.7 µM)
16 | C[C@H]1[C@H]2CC[C@H]3[C@@H]4CC=C5C[C@@H](N(C)C)CC[C@]5(C)[C@H]4CC[C@]23CN1C [CONESSINE] | 8.97 (≈ 25.2 µM)
17 | COc1cc2c3c(c1O)Oc1ccc(cc1)C[C@@H]1c4c(cc(OC)c(O)c4Oc4ccc(cc4)C[C@H]3N(C)CC2)CCN1C [ISOCHONDODENDRINE] | 10.5 (≈ 17.7 µM)
18 | CC[C@H]1CN2CCc3cc(OC)c(OC)cc3[C@@H]2C[C@@H]1CC1=NCCc2cc(O)c(OC)cc21 [PSYCHOTRINE] | 8.19 (≈ 17.6 µM)
19 | C[C@@H]1NC[C@]23CC[C@H]4[C@@H](CC=C5C[C@@H](N(C)C)CC[C@@]54C)[C@@H]2CC[C@H]13 [CONESSIMINE] | 1.87 (≈ 5.46 µM)
20 | COC1=C[C@@H](C)[C@@H]2C[C@H]3OC(=O)C[C@H]4C(C)=C(OC)C(=O)[C@H]([C@@]2(C)C1=O)[C@@]34C [QUASSIN] | 0.5 (≈ 1.29 µM)
21 | C=C[C@H]1CN2CC[C@H]1C[C@H]2c1[nH]c2ccccc2c1CCO [CINCHONAMINE] | 14.8 (≈ 49.9 µM)
22 | C=C[C@H]1CN2CC[C@H]1C[C@@H]2C(=O)c1ccnc2ccc(OC)cc12 [QUINIDINONE] | 7.4 (≈ 23 µM)
23 | COc1cc2c3c4c1Oc1cc5c(cc1O4)[C@H](Cc1ccc(O)c(c1)Oc1ccc(cc1)C[C@@H]3N(C)CC2)NCC5 [COCSOLINE] | 9.86 (≈ 18 µM)
24 | CC[C@H]1CN2CCc3cc(OC)c(OC)cc3[C@@H]2C[C@@H]1C[C@H]1NCCc2c1[nH]c1ccc(O)cc21 [TUBULOSINE] | 1.6 (≈ 3.36 µM)
25 | C=C[C@H]1CN2CC[C@H]1C[C@@H]2[C@@]12Nc3ccccc3[C@]1(O)CCO2 [3-EPIQUINAMINE] | 12.9 (≈ 41.3 µM)
26 | COC(=O)c1cc(O)c(O)c(O)c1 [GALLIC ACID METHYL ESTER] | 22.6 (≈ 123 µM)
27 | CC[C@@H](C)C(=O)O[C@H]1C(=O)O[C@@H]2C[C@H]3C(C)=CC(=O)[C@@H](O)[C@]3(C)[C@H]3[C@@H](O)[C@H](O)[C@]4(C)OC[C@]32[C@@H]14 [SIMALIKALACTONE D] | 0.047 (≈ 0.0982 µM)
28 | COc1ccc2cc1Oc1ccc(cc1)C[C@@H]1c3cc(c(OC)cc3CCN1C)Oc1c(OC)c(OC)cc3c1[C@@H](C2)N(C)CC3 [PHAEANTHINE] | 10.8 (≈ 17.4 µM)

Results, then the compound that gave them:

Row | IC50 [µg/mL] | SMILES
29 | 81 (≈ 319 µM) | O=c1cc(-c2ccccc2)oc2cc(O)cc(O)c12 [CHRYSIN]
30 | 19.2 (≈ 31.6 µM) | COc1cc2c3cc1Oc1c(O)c(OC)cc4c1[C@H](Cc1ccc(O)c(c1)-c1cc(ccc1OC)C[C@H]3N(C)CC2)N(C)CC4 [TILIAGEINE]
31 | 24.9 (≈ 62.9 µM) | C/C=C1\CN(C)CC[C@]23C(=O)C[C@@H]1[C@H]1CO[C@H](OC)C(=O)N(c4ccccc42)[C@@H]13 [HOLSTILINE]
32 | 5.4 (≈ 9.14 µM) | COC(=O)C1=CO[C@H](O[C@@H]2O[C@H](COC(C)=O)[C@@H](O)[C@H](O)[C@H]2O)[C@H]2[C@@H]1C=C[C@@]21C=C(C(O)c2ccc(O)cc2)C(=O)O1 (stereo partly drawn) [ACETYLGAERTNEROSIDE]
33 | 1.92 (≈ 6.61 µM) | Oc1cc(O)c2c(c1)O[C@H](c1ccc(O)c(O)c1)[C@H](O)C2 [(-)-EPICATECHIN]
34 | 16.6 (≈ 85.4 µM) | CO[C@H]1[C@H](O)[C@@H](O)[C@@H](O)[C@H](O)[C@@H]1O [METHYLINOSITOL]
35 | 0.198 (≈ 0.39 µM) | O=C(/C=C/c1ccc(O)cc1)O[C@H]1[C@@H]2C=CO[C@@H](O[C@@H]3O[C@H](CO)[C@@H](O)[C@H](O)[C@H]3O)[C@@H]2[C@@]2(CO)O[C@@H]12 [SPECIOSIDE]
36 | 2.3 (≈ 3.98 µM) | COC(=O)C1=CO[C@@H](O[C@@H]2O[C@H](CO)[C@@H](O)[C@H](O)[C@H]2O)[C@H]2[C@@H]1C=C[C@@]21C=C(C(O)c2ccc(O)c(OC)c2)C(=O)O1 (stereo partly drawn) [METHOXY-GAERTNEROSIDE]
37 | 0.49 (≈ 1.13 µM) | C/C=C1/CN2CCc3c([nH]c4ccccc34)[C@@H]2C[C@@H]1Cc1nccc2c1[nH]c1ccccc12 [USAMBARENSINE]
38 | > 125 | C[C@H]1O[C@H](OC[C@H]2O[C@@H](Oc3cc(O)c4c(=O)c(O)c(-c5ccc(O)cc5)oc4c3)[C@H](O[C@@H]3O[C@H](CO)[C@@H](O)[C@H](O)[C@H]3O)[C@@H](O)[C@@H]2O)[C@@H](O)[C@@H](O)[C@@H]1O [KAEMPFEROL-7-O-RHAMNOSYL-SOPHOROSIDE]
39 | 18.3 (≈ 30.8 µM) | COc1cc2c3cc1Oc1c(O)c(OC)cc4c1[C@@H](Cc1ccc(O)c(c1)Oc1ccc(cc1)C[C@@H]3N(C)CC2)N(C)CC4 [OBAMEGINE]
40 | 21.4 (≈ 34.6 µM) | CC[C@@H]1CN2CC[C@@]34c5ccccc5N5[C@@H]([C@@H]6[C@H]7C[C@@H]8N(CC[C@@]89c8ccccc8N(C(C)=O)[C@@H]69)C[C@H]7CC)OC[C@H]([C@H]1C[C@H]23)[C@H]54 [DIDEHYDRO ISOSTRYCHNOBILINE]
41 | 28.3 (≈ 45.4 µM) | COc1cc2c3cc1Oc1c(OC)c(OC)cc4c1[C@H](Cc1ccc(O)c(c1)-c1cc(ccc1OC)C[C@H]3N(C)CC2)N(C)CC4 [FUNIFERINE]
42 | 189 (≈ 660 µM) | O=c1c(O)c(-c2ccc(O)c(O)c2)oc2cc(O)ccc12 [FISETIN]
43 | > 50 | COc1cc2c3cc1Oc1c(O)c(OC)cc4c1[C@H](Cc1ccc(cc1)Oc1cc(ccc1O)C[C@H]3NCC2)N(C)CC4 [DAPHNOLINE]
44 | 50 | C/C=C1/C[N+]2(C)CCc3c([nH]c4ccccc34)C2CC1C(CO)C(=O)OC (stereo not drawn) [DIPLOCELINE]
45 | 4.1 (≈ 13.7 µM) | CC[C@@H]1CN2CCc3c([nH]c4ccccc34)[C@H]2C[C@@H]1CCO [3-ISOCORYNANTHEOL]
46 | > 125 | COc1cc(-c2cc(=O)c3c(O)cc(O[C@@H]4O[C@H](CO)[C@@H](O)[C@H](O)[C@H]4O[C@@H]4O[C@@H](C)[C@H](O)[C@@H](O)[C@H]4O)cc3o2)ccc1O [CHRYSOERIOL-7-O-NEOHESPERIDOSIDE]
47 | 23.2 (≈ 61.1 µM) | C/C=C1/CN2CC[C@]34c5ccccc5N(C(C)=O)[C@H]3[C@H](COC(C)=O)[C@H]1C[C@H]24 [O-ACETYLISORETULINE]
48 | 0.306 (≈ 0.637 µM) | COC(=O)[C@@]12OC[C@]34[C@H]([C@@H](O)[C@@H]1O)[C@@]1(C)CC(=O)C(O)=C(C)[C@@H]1C[C@H]3OC(=O)[C@H](OC(C)=O)[C@@H]24 [BRUCEINE B]
49 | 6.02 | CCc1ccc2[n+](c1)CCc1c-2[nH]c2ccccc12 [5,6-DIHYDROFLAVOPEREIRINE]
50 | 52 (≈ 90.2 µM) | Oc1ccc([C@]23Oc4cc(O)cc(O)c4[C@H](c4c(cc(O)c5c4O[C@H](c4cc(O)c(O)c(O)c4)[C@@H](O)C5)O2)[C@H]3O)cc1 [GERANIN C]
51 | 3.6 (≈ 9.41 µM) | COC(=O)C1=CO[C@@H](C)[C@@H]2CN3CCc4c([nH]c5ccc(OC)cc45)[C@@H]3C[C@H]12 [ARICINE]
52 | 25.2 (≈ 74.9 µM) | C/C=C1/CN2CC[C@]34c5ccccc5N(C(C)=O)[C@H]3[C@@H](C=O)[C@@H]1C[C@H]24 [RETULINAL]
53 | 0.063 (≈ 0.132 µM) | CCC(C)C(=O)O[C@H]1C(=O)O[C@@H]2C[C@H]3C(C)=CC(=O)[C@@H](O)[C@]3(C)[C@H]3[C@]4(O)OC[C@]32[C@@H]1[C@@H](C)[C@H]4O (stereo partly drawn) [AILANTHINONE]
54 | 109 (≈ 251 µM) | O=c1c(O[C@@H]2OC[C@@H](O)[C@H](O)[C@H]2O)c(-c2ccc(O)c(O)c2)oc2cc(O)cc(O)c12 [REYNOUTRIN]
55 | 0.0995 (≈ 0.19 µM) | O=C(/C=C/c1ccc(O)c(O)c1)O[C@@H]1C2C=CO[C@H](O[C@@H]3O[C@H](CO)[C@@H](O)[C@H](O)[C@H]3O)C2[C@]2(CO)O[C@H]12 (stereo partly drawn) [VERMINOSIDE]
56 | 7.1 (≈ 13.3 µM) | O=C(O)C1=CO[C@H](O[C@@H]2O[C@H](CO)[C@@H](O)[C@H](O)[C@H]2O)[C@H]2[C@@H]1C=C[C@@]21C=C(C(O)c2ccc(O)cc2)C(=O)O1 (stereo partly drawn) [GAERTNERIC ACID]
57 | 72.5 (≈ 122 µM) | C[C@H]1O[C@H](OC[C@H]2O[C@@H](Oc3c(-c4ccc(O)cc4)oc4cc(O)cc(O)c4c3=O)[C@H](O)[C@@H](O)[C@@H]2O)[C@@H](O)[C@@H](O)[C@@H]1O [KAEMPFEROL-3-O-RUTINOSIDE]
58 | 0.279 (≈ 0.494 µM) | COC(=O)[C@]12OC[C@]34[C@H]([C@@H](O)[C@@H]1O)[C@@]1(C)CC(=O)C(O)=C(C)[C@@H]1C[C@H]3OC(=O)[C@H](OC(=O)/C=C(\C)C(C)(C)O)[C@@H]24 [BRUCEINE C]

Source: ChEMBL document CHEMBL3046784, “Exploring QSAR of antiamoebic agents of isolated natural products by MLR, ANN, and RTO” (Med Chem Res, 2012)
